Here are results for four compounds from PubChem BioAssay (NCI).

Some test systems named below: DLD-1 colon; DMS 114 small cell lung; DMS 273 small cell lung; HOP-18 NSCLC; KM20L2 colon; M19-MEL melanoma; P388/ADR leukemia; SN12K1 renal; SNB-78 CNS; XF 498 CNS; P388 leukemia; LXFL 529 NSCLC; RXF-631 renal.
Assay in all cases: NCI tumour cell line growth inhibition, 48 h

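Compound exposure: 48 hours, 5 concentrations, 96-well plates. Definition used: TGI = concentration required for complete inhibition of growth.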 Some results are limits rather than exact numbers.

For the compound `CC[C@]12C=CCN3CC[C@@]4(c5ccc(OC)cc5N(C)[C@H]4[C@@](O)(C(=O)OC)[C@@H]1OC(C)=O)[C@@H]32`, the TGI was above 200 µM in the experiment on DLD-1 colon; above 200 µM in the experiment on DMS 114 small cell lung; above 200 µM in the experiment on DMS 273 small cell lung; above 200 µM with HOP-18 NSCLC; above 164 µM in the experiment on KM20L2 colon; above 63.2 µM in the experiment on M19-MEL melanoma. Further, the TGI in the experiment with P388/ADR leukemia, with SN12K1 renal, in the experiment on SNB-78 CNS and in the experiment on XF 498 CNS was above 200 µM each time.

As to `CC(C)CCN=c1cc2n(-c3ccc(Cl)cc3)c3ccccc3nc-2cc1Nc1ccc(Cl)cc1`, the TGI with DLD-1 colon turned out to be 68.4 µM; with DMS 114 small cell lung, 7.63 µM; with DMS 273 small cell lung it was 56.4 µM; in the experiment on HOP-18 NSCLC, 56.6 µM; in the experiment on KM20L2 colon, 19.7 µM; in the experiment on M19-MEL melanoma, 20.2 µM. Moreover, the TGI in the experiment with P388 leukemia is 11.7 µM; in the experiment on P388/ADR leukemia, 10.2 µM; in the experiment with SN12K1 renal, 23.7 µM; with SNB-78 CNS it was above 100 µM; with XF 498 CNS, 20.6 µM.

Take `CCOCNC(=O)N(COCC)COCC`: the TGI in the experiment on DLD-1 colon, in the experiment with DMS 114 small cell lung, in the experiment on KM20L2 colon, in the experiment with LXFL 529 NSCLC, with M19-MEL melanoma and in the experiment with RXF-631 renal was above 100 µM in each case. Moreover, the TGI in the experiment with SNB-78 CNS and in the experiment on XF 498 CNS was above 100 µM each time.

For the compound `COc1ccc2c(c1)CCCc1cn[nH]c1-2`, the TGI in the experiment with DLD-1 colon, in the experiment on DMS 114 small cell lung, with DMS 273 small cell lung, in the experiment on HOP-18 NSCLC, in the experiment with KM20L2 colon and in the experiment on M19-MEL melanoma was above 100 µM in each case. Moreover, the TGI with P388 leukemia, with P388/ADR leukemia, with SN12K1 renal, in the experiment with SNB-78 CNS and with XF 498 CNS was above 100 µM each time.
